ChEMBL document CHEMBL5608182, “Synthesis and evaluation of neuroactive steroids with novel pharmacophore at C-21 let identify a compound with advantageous PK profile and higher EC50 and Emax as PAM on GABAA receptor” (Eur J Med Chem, 2024)

Experiments:
[1] = MRTlast in male Sprague-Dawley rat at 6.1 micromol/kg, iv administered as single dose and measured upto 24 hrs by LC-MS/MS analysis; assay type: ADME, organism-based; conditions: in vivo, dose 6.1 µmol/kg
[2] = Initial drug concentration in male Sprague-Dawley rat at 6.1 micromol/kg, iv administered as single dose and measured upto 24 hrs by LC-MS/MS analysis; assay type: ADME, organism-based; conditions: in vivo, dose 6.1 µmol/kg
[3] = AUClast in male Sprague-Dawley rat at 24.4 micromol/kg, IG administered as single dose and measured upto 24 hrs by LC-MS/MS analysis; assay type: ADME; conditions: in vivo, po, dose 24.4 µmol/kg
[4] = Genotoxicity in Salmonella typhimurium TA102 assessed as induction of reverse mutation in presence of rat liver S9 fraction; assay type: toxicity, subcellular; conditions: salmonella enterica subsp. enterica serovar typhimurium
Cytochrome P450 2C9 = Cytochrome P450 2C9 (Homo sapiens, UniProt P11712); test: Inhibition of CYP2C9 (unknown origin); assay type: ADME
[5] = Toxicity in male Sprague-Dawley rat assessed as risk of consciousness loss by measuring time for first loss of righting reflex at 36.6 micromol/kg, ip measured within 4 hrs; assay type: organism-based; conditions: in vivo, dose 36.6 µmol/kg
[6] = Genotoxicity in Salmonella typhimurium TA98 assessed as induction of reverse mutation in absence of rat liver S9 fraction; assay type: toxicity; conditions: salmonella enterica subsp. enterica serovar typhimurium
[7] = Genotoxicity in Salmonella typhimurium TA1535 assessed as induction of reverse mutation in presence of rat liver S9 fraction; assay type: toxicity, subcellular; conditions: salmonella enterica subsp. enterica serovar typhimurium
[8] = MRTlast in male Sprague-Dawley rat at 24.4 micromol/kg, IG administered as single dose and measured upto 24 hrs by LC-MS/MS analysis; assay type: ADME; conditions: in vivo, po, dose 24.4 µmol/kg
Cytochrome P450 2B6 = biological target: T1, Cytochrome P450 2B6 (Homo sapiens, UniProt P20813); test: Inhibition of CYP2B6 (unknown origin); assay type: ADME
T1 sequence (P20813 whole entry): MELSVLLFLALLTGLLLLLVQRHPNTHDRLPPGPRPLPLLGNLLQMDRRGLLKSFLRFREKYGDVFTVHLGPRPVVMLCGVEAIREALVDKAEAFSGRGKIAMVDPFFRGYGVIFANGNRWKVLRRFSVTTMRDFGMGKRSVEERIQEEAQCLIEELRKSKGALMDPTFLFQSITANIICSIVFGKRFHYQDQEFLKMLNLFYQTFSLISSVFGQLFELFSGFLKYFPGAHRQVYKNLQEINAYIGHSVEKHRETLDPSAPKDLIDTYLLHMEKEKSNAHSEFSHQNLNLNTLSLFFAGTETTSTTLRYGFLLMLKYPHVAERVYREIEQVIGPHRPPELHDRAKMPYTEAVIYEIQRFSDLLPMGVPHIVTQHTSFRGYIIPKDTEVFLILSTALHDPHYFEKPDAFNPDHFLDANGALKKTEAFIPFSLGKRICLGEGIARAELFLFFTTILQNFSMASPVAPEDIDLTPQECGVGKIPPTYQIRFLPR

[9] = Half life in male Sprague-Dawley rat at 6.1 micromol/kg, iv administered as single dose and measured upto 24 hrs by LC-MS/MS analysis; assay type: ADME, organism-based; conditions: in vivo, dose 6.1 µmol/kg
[10] = Tmax in male Sprague-Dawley rat at 24.4 micromol/kg, IG administered as single dose and measured upto 24 hrs by LC-MS/MS analysis; assay type: ADME; conditions: in vivo, po, dose 24.4 µmol/kg
[11] = Toxicity in male Sprague-Dawley rat assessed as loss of righting reflex at 23.3 micromol/kg, ip measured within 4 hrs; assay type: organism-based; conditions: in vivo, dose 23.3 µmol/kg
[12] = Ratio of Cmax in IG dosed Sprague-Dawley rat brain to plasma; assay type: ADME, organism-based; conditions: brain and plasma, po, read-out: BPR
Cytochrome P450 3A4 = Cytochrome P450 3A4 (Homo sapiens, UniProt P08684); test: Inhibition of CYP3A4 (unknown origin); assay type: ADME
[13] = biological target: Gamma-aminobutyric acid receptor subunit alpha-4/beta3/delta (Homo sapiens, UniProt O14764+P28472+P48169); test: Positive allosteric modulation of extrasynaptic alpha4beta3delta GABA-A receptor (unknown origin) transfected in CHO cells assessed as potentiation of GABA-induced peak current amplitude at -80 mV holding potential preincubated for 30 secs followed by GABA stimulation for 2 secs by manual patch assay; assay type: cell-based
[14] = Genotoxicity in Salmonella typhimurium TA97 assessed as induction of reverse mutation in absence of rat liver S9 fraction; assay type: toxicity; conditions: salmonella enterica subsp. enterica serovar typhimurium
[15] = Drug concentration in Sprague-Dawley rat brain at 24.4 micromol/kg, IG measured after 2 hrs by LC-MS/MS analysis; assay type: ADME, tissue-based; conditions: in vivo, po, dose 24.4 µmol/kg
[16] = Genotoxicity in Salmonella typhimurium TA98 assessed as induction of reverse mutation in presence of rat liver S9 fraction; assay type: toxicity, subcellular; conditions: salmonella enterica subsp. enterica serovar typhimurium
[17] = Toxicity in male Sprague-Dawley rat assessed as risk of consciousness loss by measuring time for first loss of righting reflex at 29.2 micromol/kg, ip measured within 4 hrs; assay type: organism-based; conditions: in vivo, dose 29.2 µmol/kg
[18] = biological target: GABA-A receptor; alpha-1/beta-2/gamma-2 (Homo sapiens) (UniProt P14867+P47870+P18507); test: Positive allosteric modulation of synaptic alpha1beta2gamma2 GABA-A receptor (unknown origin) transfected in LTK cells assessed as potentiation of GABA-induced peak current amplitude by measuring maximal efficacy at 0.01 to 10 uM at -80 mV holding potential preincubated for 30 secs followed by GABA stimulation for 2 secs by Q-patch assay relative to control; assay type: cell-based; conditions: filed as positive allosteric modulator, dose 0.01-10 µM, time 32.0 sec
[19] = Metabolic stability in Sprague-Dawley rat liver microsomes assessed as intrinsic clearance at 1 uM preincubated for 10 mins followed by NADPH addition by LC-MS analysis; assay type: ADME, Microsome; conditions: read-out: CLH
[20] = Genotoxicity in Salmonella typhimurium TA102 assessed as induction of reverse mutation in absence of rat liver S9 fraction; assay type: toxicity; conditions: salmonella enterica subsp. enterica serovar typhimurium
[21] = Metabolic stability in Sprague-Dawley rat liver microsomes assessed as compound remaining at 1 uM preincubated for 10 mins followed by NADPH addition by LC-MS analysis; assay type: ADME, Microsome; conditions: read-out: Stability
[22] = Genotoxicity in Salmonella typhimurium TA1535 assessed as induction of reverse mutation in absence of rat liver S9 fraction; assay type: toxicity; conditions: salmonella enterica subsp. enterica serovar typhimurium
[23] = Apparent volume of distribution in male Sprague-Dawley rat at 24.4 micromol/kg, IG administered as single dose and measured upto 24 hrs by LC-MS/MS analysis; assay type: ADME; conditions: in vivo, po, dose 24.4 µmol/kg
Rattus norvegicus [24] = test: Antiseizure activity in PTZ-induced male Sprague-Dawley rat acute seizure model assessed as increase in latency to tonic seizures at 11.6 micromol/kg, po pretreated for 2 hrs followed by PTZ addition and measured after 60 mins (reference value: 77 +/- 13.4 sec); assay type: functional; conditions: dose 11.6 µmol/kg, time 180 min, 3 h
[25] = Genotoxicity in Salmonella typhimurium TA97 assessed as induction of reverse mutation in presence of rat liver S9 fraction; assay type: toxicity, subcellular; conditions: salmonella enterica subsp. enterica serovar typhimurium
[26] = Toxicity in male Sprague-Dawley rat assessed as risk of consciousness loss by measuring time for first loss of righting reflex at 9.8 micromol/kg, ip measured within 4 hrs; assay type: organism-based; conditions: in vivo, dose 9.8 µmol/kg
Rattus norvegicus [27] = test: Antiseizure activity in PTZ-induced male Sprague-Dawley rat acute seizure model assessed as increase in latency to tonic seizures at 24.4 micromol/kg, po pretreated for 1 hr followed by PTZ addition and measured after 60 mins (reference value: 77 +/- 13.4 sec); assay type: functional; conditions: dose 24.4 µmol/kg, time 120 min, 2 h
[28] = biological target: GABA-A receptor; anion channel; test: Inhibition of [35S]TBPS binding to GABA-A receptor in Sprague-Dawley rat brain cortical membrane incubated for 90 mins by liquid scintillation spectrometry; assay type: cell membranes, Cortex

Sequence of Cytochrome P450 2C9 (P11712 whole entry): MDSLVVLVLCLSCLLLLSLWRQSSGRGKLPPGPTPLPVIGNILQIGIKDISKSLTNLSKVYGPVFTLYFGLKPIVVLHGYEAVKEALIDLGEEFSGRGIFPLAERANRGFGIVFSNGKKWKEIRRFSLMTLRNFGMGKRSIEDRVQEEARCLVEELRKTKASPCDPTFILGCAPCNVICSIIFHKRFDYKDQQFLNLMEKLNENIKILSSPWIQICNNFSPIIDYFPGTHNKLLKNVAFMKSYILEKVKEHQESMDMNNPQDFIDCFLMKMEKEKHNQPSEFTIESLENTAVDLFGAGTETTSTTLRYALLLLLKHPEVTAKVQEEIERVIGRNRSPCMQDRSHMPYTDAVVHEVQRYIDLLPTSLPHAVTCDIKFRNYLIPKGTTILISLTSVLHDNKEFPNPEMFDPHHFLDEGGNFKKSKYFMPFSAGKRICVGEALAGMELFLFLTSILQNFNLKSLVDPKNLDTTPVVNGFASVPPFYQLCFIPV
Sequence of Cytochrome P450 3A4 (P08684 whole entry): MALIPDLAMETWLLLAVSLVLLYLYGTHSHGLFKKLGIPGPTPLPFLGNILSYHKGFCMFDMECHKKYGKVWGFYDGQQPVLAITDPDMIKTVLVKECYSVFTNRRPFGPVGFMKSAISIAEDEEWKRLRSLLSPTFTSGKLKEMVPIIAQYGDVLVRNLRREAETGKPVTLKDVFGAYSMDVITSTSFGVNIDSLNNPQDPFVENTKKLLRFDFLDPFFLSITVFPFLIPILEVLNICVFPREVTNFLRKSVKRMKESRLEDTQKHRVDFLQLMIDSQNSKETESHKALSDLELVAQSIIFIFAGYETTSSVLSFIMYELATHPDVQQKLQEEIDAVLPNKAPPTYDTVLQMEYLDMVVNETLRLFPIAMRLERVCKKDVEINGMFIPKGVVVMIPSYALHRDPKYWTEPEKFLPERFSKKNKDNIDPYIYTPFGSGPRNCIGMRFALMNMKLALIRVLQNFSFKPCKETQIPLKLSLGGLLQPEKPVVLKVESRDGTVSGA
Sequence of Gamma-aminobutyric acid receptor subunit alpha-4/beta3/delta (P28472 whole entry): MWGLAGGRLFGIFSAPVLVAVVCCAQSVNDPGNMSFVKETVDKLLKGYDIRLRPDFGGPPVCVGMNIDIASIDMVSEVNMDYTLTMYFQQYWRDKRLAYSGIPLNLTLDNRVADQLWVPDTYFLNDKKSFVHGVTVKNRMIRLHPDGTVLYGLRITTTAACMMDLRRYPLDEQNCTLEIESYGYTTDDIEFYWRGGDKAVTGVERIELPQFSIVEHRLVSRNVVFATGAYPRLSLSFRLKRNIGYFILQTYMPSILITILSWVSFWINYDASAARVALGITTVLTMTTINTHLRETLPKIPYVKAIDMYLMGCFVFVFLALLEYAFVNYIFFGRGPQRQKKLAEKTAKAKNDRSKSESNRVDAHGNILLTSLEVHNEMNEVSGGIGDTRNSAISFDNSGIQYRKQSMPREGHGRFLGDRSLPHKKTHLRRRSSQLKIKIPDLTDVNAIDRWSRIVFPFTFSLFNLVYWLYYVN
Sequence of Gamma-aminobutyric acid receptor subunit alpha-4/beta3/delta (P48169 whole entry): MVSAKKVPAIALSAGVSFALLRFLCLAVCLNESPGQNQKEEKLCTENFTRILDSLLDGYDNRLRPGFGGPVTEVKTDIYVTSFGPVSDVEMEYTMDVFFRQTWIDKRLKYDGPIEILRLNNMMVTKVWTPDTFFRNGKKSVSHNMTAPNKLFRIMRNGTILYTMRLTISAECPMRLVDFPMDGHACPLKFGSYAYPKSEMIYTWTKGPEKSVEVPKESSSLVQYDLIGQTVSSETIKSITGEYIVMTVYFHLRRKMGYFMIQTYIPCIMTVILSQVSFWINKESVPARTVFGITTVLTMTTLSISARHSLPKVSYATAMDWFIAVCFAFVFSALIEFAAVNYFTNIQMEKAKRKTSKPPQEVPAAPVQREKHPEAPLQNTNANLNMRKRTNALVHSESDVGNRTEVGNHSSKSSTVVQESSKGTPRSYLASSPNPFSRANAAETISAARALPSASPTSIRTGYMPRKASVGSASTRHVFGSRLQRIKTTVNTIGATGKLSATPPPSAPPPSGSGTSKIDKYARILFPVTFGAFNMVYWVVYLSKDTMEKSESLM
Sequence of Gamma-aminobutyric acid receptor subunit alpha-4/beta3/delta (O14764 whole entry): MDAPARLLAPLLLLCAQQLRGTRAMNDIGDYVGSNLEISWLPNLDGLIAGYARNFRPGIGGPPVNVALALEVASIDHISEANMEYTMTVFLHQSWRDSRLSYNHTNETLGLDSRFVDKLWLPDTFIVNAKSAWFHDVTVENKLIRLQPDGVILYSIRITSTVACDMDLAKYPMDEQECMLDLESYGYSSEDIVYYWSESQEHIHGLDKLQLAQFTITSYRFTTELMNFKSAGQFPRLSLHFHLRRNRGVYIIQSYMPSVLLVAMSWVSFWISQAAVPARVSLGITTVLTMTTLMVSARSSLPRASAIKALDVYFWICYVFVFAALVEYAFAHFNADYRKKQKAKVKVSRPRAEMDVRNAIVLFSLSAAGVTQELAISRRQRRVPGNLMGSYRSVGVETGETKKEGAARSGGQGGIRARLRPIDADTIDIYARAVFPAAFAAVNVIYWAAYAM

SMILES	MRT last at 24 h [1]	C0 at 24 h [2]	AUC(0-t) at 24 h [3]	IC50 (Cytochrome P450 2C9)	MRT last at 24 h [8]	IC50 (Cytochrome P450 2B6)	half-life [9]	Tmax [10]	IC50 (Cytochrome P450 3A4)	EC50 [13]	Ct [15]	Emax [18]	CLint scaled at 1 µM [19]	remaining at 1 µM [21]	Vz [23]	other results
C[C@@]1(O)CC[C@H]2[C@H](CC[C@@H]3[C@@H]2CC[C@]2(C)[C@@H](C(=O)Cn4cnn(-c5cc(F)nc(F)c5)c4=O)CC[C@@H]32)C1	4.75 h	1870 nM	24 µM·h	> 30 µM	7.74 h	> 30 µM	312 min	2.01 h	> 30 µM	75 nM	3404 nmol/kg	675%	23 mL/min/kg	68%	8.86 L/kg	Activity [4]: Non-Toxic; Time [5]: 57 min; Activity [6]: Non-Toxic; Activity [7]: Non-Toxic; Activity [11]: Non-Toxic; Kp [12]: 1.5; Activity [14]: Non-Toxic; Activity [16]: Non-Toxic; Time [17]: 65 min; Activity [20]: Non-Toxic; Activity [22]: Non-Toxic; Time (Rattus norvegicus [24]): 2686 s; Activity [25]: Non-Toxic
C[C@@]1(O)CC[C@H]2[C@H](CC[C@@H]3[C@@H]2CC[C@]2(C)[C@@H](C(=O)Cn4cc(C#N)cn4)CC[C@@H]32)C1 [ZURANOLONE]	2.12 h	3440 nM	12 µM·h	> 30 µM	4.46 h	> 30 µM	147 min	1.17 h	> 30 µM	135 nM	2220 nmol/kg	980%	51.8 mL/min/kg	40%	10.54 L/kg	Time [26]: 46 min; Time (Rattus norvegicus [27]): 2850 s; IC50 [28]: 7 nM
